# Data reported in PubChem BioAssay (NCI).
#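 Tested at 5 concentrations; 48 h exposure; 96-well plates; endpoints linearly interpolated, else capped at highest concentration. Abbreviation: GI50, concentration required for 50% inhibition of growth. TGI is the concentration that stops growth completely.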
# Tested on: DLD-1 colon
# Experiment: NCI anticancer screen, dose series, 48 h
row,Compound,TGI [µM]
1,C=C1C(=O)O[C@H]2[C@H]1[C@@H](OC(=O)C=C(C)C)CC1=C[C@@H](C[C@@]3(C)O[C@@H]23)OC1=O,11.8
2,CCOC(=O)C(N)CSC(=O)NC (stereo not drawn),474
3,O=C1NC(=O)C(CCO)(c2ccccc2)C(=O)N1,> 100
4,COC(=O)C(=C/c1ccc(OC)cc1)/C(C(=O)O)=C(/C)c1ccccc1,> 100
5,COC(=O)c1ccc(/C=C2\N=C(C)OC2=O)cc1,> 100
6,Nc1ccc(C(=O)NN2C(=O)C(Cl)C2c2ccccc2Cl)cc1 (stereo not drawn),23
7,COC(=O)C1OC(Oc2cc(O)c3c(=O)cc(-c4ccc(O)cc4)oc3c2)C(O)C(O)C1O (stereo not drawn),> 100
8,O=C1C(Cl)C(c2ccccc2)N1n1cnc2ccccc2c1=O (stereo not drawn),> 100
9,CN(C)C(=O)OCOC(=O)N(C)C,> 100
10,CCCCN1C=CN2c3nc4cc(C)c(C)cc4n3C(C(=O)OC)=C(C(=O)OC)C12 (stereo not drawn),> 100
11,CCCCCC(C[N+]1(C)CCOCC1)C(=O)/C=C/c1ccccc1 (stereo not drawn),18
12,C/C(=C1/CCCC2(N=NCC2c2ccccc2)C1=O)c1ccccc1 (stereo not drawn),> 100

# Tested on: DMS 114 small cell lung
# Experiment: NCI anticancer screen, dose series, 48 h
row,Compound,TGI [µM]
1,CCOC(=O)C(N)CSC(=O)NC (stereo not drawn),147
2,O=C1NC(=O)C(CCO)(c2ccccc2)C(=O)N1,> 100
3,Cc1ccc(C2CC(c3ccco3)=NN2c2ccccc2)o1 (stereo not drawn),> 100
4,COC(=O)c1ccc(/C=C2\N=C(C)OC2=O)cc1,> 100
5,Nc1ccc(C(=O)NN2C(=O)C(Cl)C2c2ccccc2Cl)cc1 (stereo not drawn),18.8
6,COC(=O)C1OC(Oc2cc(O)c3c(=O)cc(-c4ccc(O)cc4)oc3c2)C(O)C(O)C1O (stereo not drawn),> 100
7,O=C1C(Cl)C(c2ccccc2)N1n1cnc2ccccc2c1=O (stereo not drawn),> 100
8,CN(C)C(=O)OCOC(=O)N(C)C,> 100
9,CCCCN1C=CN2c3nc4cc(C)c(C)cc4n3C(C(=O)OC)=C(C(=O)OC)C12 (stereo not drawn),> 100
10,CCCCCC(C[N+]1(C)CCOCC1)C(=O)/C=C/c1ccccc1 (stereo not drawn),26
11,C/C(=C1/CCCC2(N=NCC2c2ccccc2)C1=O)c1ccccc1 (stereo not drawn),33.2

# Tested on: DMS 273 small cell lung
# Experiment: NCI anticancer screen, dose series, 48 h
Compound,GI50 [µM],TGI [µM]
C=C1C(=O)O[C@H]2[C@H]1[C@@H](OC(=O)C=C(C)C)CC1=C[C@@H](C[C@@]3(C)O[C@@H]23)OC1=O,24.7,
CCOC(=O)C(N)CSC(=O)NC (stereo not drawn),,375
O=C1NC(=O)C(CCO)(c2ccccc2)C(=O)N1,,> 100
Cc1ccc(C2CC(c3ccco3)=NN2c2ccccc2)o1 (stereo not drawn),,> 100
COC(=O)C(=C/c1ccc(OC)cc1)/C(C(=O)O)=C(/C)c1ccccc1,,> 100
COC(=O)c1ccc(/C=C2\N=C(C)OC2=O)cc1,,> 100
Nc1ccc(C(=O)NN2C(=O)C(Cl)C2c2ccccc2Cl)cc1 (stereo not drawn),,12
COC(=O)C1OC(Oc2cc(O)c3c(=O)cc(-c4ccc(O)cc4)oc3c2)C(O)C(O)C1O (stereo not drawn),,> 100
O=C1C(Cl)C(c2ccccc2)N1n1cnc2ccccc2c1=O (stereo not drawn),,> 100
CN(C)C(=O)OCOC(=O)N(C)C,,> 100
CCCCN1C=CN2c3nc4cc(C)c(C)cc4n3C(C(=O)OC)=C(C(=O)OC)C12 (stereo not drawn),,> 100
CCCCCC(C[N+]1(C)CCOCC1)C(=O)/C=C/c1ccccc1 (stereo not drawn),,11.7
C/C(=C1/CCCC2(N=NCC2c2ccccc2)C1=O)c1ccccc1 (stereo not drawn),,33.3

# Tested on: HOP-18 NSCLC
# Experiment: NCI anticancer screen, dose series, 48 h
row,Compound,TGI [µM]
1,C=C1C(=O)O[C@H]2[C@H]1[C@@H](OC(=O)C=C(C)C)CC1=C[C@@H](C[C@@]3(C)O[C@@H]23)OC1=O,10.2
2,CCOC(=O)C(N)CSC(=O)NC (stereo not drawn),686
3,O=C1NC(=O)C(CCO)(c2ccccc2)C(=O)N1,> 100
4,COC(=O)C(=C/c1ccc(OC)cc1)/C(C(=O)O)=C(/C)c1ccccc1,> 100
5,COC(=O)c1ccc(/C=C2\N=C(C)OC2=O)cc1,> 100
6,Nc1ccc(C(=O)NN2C(=O)C(Cl)C2c2ccccc2Cl)cc1 (stereo not drawn),8.87
7,COC(=O)C1OC(Oc2cc(O)c3c(=O)cc(-c4ccc(O)cc4)oc3c2)C(O)C(O)C1O (stereo not drawn),> 100
8,O=C1C(Cl)C(c2ccccc2)N1n1cnc2ccccc2c1=O (stereo not drawn),> 100
9,CN(C)C(=O)OCOC(=O)N(C)C,> 100
10,CCCCN1C=CN2c3nc4cc(C)c(C)cc4n3C(C(=O)OC)=C(C(=O)OC)C12 (stereo not drawn),> 100
11,CCCCCC(C[N+]1(C)CCOCC1)C(=O)/C=C/c1ccccc1 (stereo not drawn),32.1
12,C/C(=C1/CCCC2(N=NCC2c2ccccc2)C1=O)c1ccccc1 (stereo not drawn),> 100

# Tested on: KM20L2 colon
# Experiment: NCI anticancer screen, dose series, 48 h
row,Compound,TGI [µM]
1,CCOC(=O)C(N)CSC(=O)NC (stereo not drawn),507
2,O=C1NC(=O)C(CCO)(c2ccccc2)C(=O)N1,> 100
3,Cc1ccc(C2CC(c3ccco3)=NN2c2ccccc2)o1 (stereo not drawn),> 100
4,COC(=O)C(=C/c1ccc(OC)cc1)/C(C(=O)O)=C(/C)c1ccccc1,> 100
5,COC(=O)c1ccc(/C=C2\N=C(C)OC2=O)cc1,> 100
6,Nc1ccc(C(=O)NN2C(=O)C(Cl)C2c2ccccc2Cl)cc1 (stereo not drawn),29.9
7,COC(=O)C1OC(Oc2cc(O)c3c(=O)cc(-c4ccc(O)cc4)oc3c2)C(O)C(O)C1O (stereo not drawn),> 100
8,O=C1C(Cl)C(c2ccccc2)N1n1cnc2ccccc2c1=O (stereo not drawn),> 100
9,CN(C)C(=O)OCOC(=O)N(C)C,> 100
10,CCCCN1C=CN2c3nc4cc(C)c(C)cc4n3C(C(=O)OC)=C(C(=O)OC)C12 (stereo not drawn),> 100
11,CCCCCC(C[N+]1(C)CCOCC1)C(=O)/C=C/c1ccccc1 (stereo not drawn),32.9
12,C/C(=C1/CCCC2(N=NCC2c2ccccc2)C1=O)c1ccccc1 (stereo not drawn),> 100

# Tested on: LOX IMVI melanoma
# Experiment: NCI anticancer screen, dose series, 48 h
row,Compound,TGI [µM]
1,CCOC(=O)C(N)CSC(=O)NC (stereo not drawn),133
2,O=C1NC(=O)C(CCO)(c2ccccc2)C(=O)N1,> 31.6
3,Cc1ccc(C2CC(c3ccco3)=NN2c2ccccc2)o1 (stereo not drawn),> 100
4,COC(=O)C(=C/c1ccc(OC)cc1)/C(C(=O)O)=C(/C)c1ccccc1,> 100
5,COC(=O)c1ccc(/C=C2\N=C(C)OC2=O)cc1,> 100
6,Nc1ccc(C(=O)NN2C(=O)C(Cl)C2c2ccccc2Cl)cc1 (stereo not drawn),2.9
7,COC(=O)C1OC(Oc2cc(O)c3c(=O)cc(-c4ccc(O)cc4)oc3c2)C(O)C(O)C1O (stereo not drawn),> 100
8,O=C1C(Cl)C(c2ccccc2)N1n1cnc2ccccc2c1=O (stereo not drawn),> 100
9,CN(C)C(=O)OCOC(=O)N(C)C,> 100
10,CCCCN1C=CN2c3nc4cc(C)c(C)cc4n3C(C(=O)OC)=C(C(=O)OC)C12 (stereo not drawn),> 100
11,CCCCCC(C[N+]1(C)CCOCC1)C(=O)/C=C/c1ccccc1 (stereo not drawn),4.02
12,C/C(=C1/CCCC2(N=NCC2c2ccccc2)C1=O)c1ccccc1 (stereo not drawn),> 100

# Tested on: LXFL 529 NSCLC
# Experiment: NCI anticancer screen, dose series, 48 h
row,Compound,TGI [µM]
1,Cc1ccc(C2CC(c3ccco3)=NN2c2ccccc2)o1 (stereo not drawn),> 100
